Consider 1 compound from patent US20040087604A1, “Hetero-tricyclic compounds having substituted amino groups” (priority 2001, published 2004).

The test system of this test is IgE production against ovalbumin (OVA). The experiment in a line: Suppressive effect on the IgE production against ovalbumin (OVA); anti-OVA IgE antibody titer (PCA titer). It counts as in vivo. Conditions: BALB/c mice immunized with OVA; oral dose 40 mg/kg for 10 days; titer = n where serum PCA-positive till 2^n dilution. The method, then:
Suppressive Effect on the IgE Production Against Ovalbumin (OVA)
BALB/c mice (female, 8-10 weeks old) and Wistar rats (female, 8-10 weeks old) which were bought from Japan SLC, Inc. (Shizuoka) were used.
BALB/c mice were immunized by an intraperitoneal administration of 0.2 ml suspension of 2 μg of ovalbumin (OVA) and 2 mg of aluminium hydroxide gel in physiological saline. After 10 days, blood was collected from hearts, then sera were separated and stocked at −40° C. till the measurement of IgE antibody titer.
After the compound of the present invention was dissolved or suspended in N,N-dimethylacetoamide, the mixture was diluted 20 times with miglyol 812 neutral oil. The obtained solution was orally administered to mice at 0.1 ml per mouse (dose 40 mg/kg). The administration was continued for 10 days from the immunizing day to the day before the blood collection.
4) Mesurement of Anti-OVA IgE Antibody Titer (PCA Titer)
The obtained mouse serum was 2-fold diluted with physiological saline, then each 50 μl the solution was intradermally injected at dorsal skin of Wistar rats which previously hair cut. […] The rats were sacrified 30 minutes later and the highest dilution giving bluing with a diameter of 5 mm or more was recorded as the PCA titer. […]

`Cc1c(C)c(-c2ccc(NC(C)C)nc2)c(C)c(C)c1-c1ccc(NC(C)C)nc1` [Compound 169]: the “PCA (anti-OVA IgE antibody titer, PCA titer)” value is on record as less than 0.
